Reference: patent US20250376432A1, “PROCESS FOR PREPARING MODULATORS OF EUKARYOTIC INITIATION FACTOR 2B” (Denali Therapeutics Inc., priority 2022, published 2025)

Assays:
[1] = Solid form stability (physical by XRPD, chemical by GC purity) under stress storage; assay type: physicochemical; settings: for 25° C./60% RH 2-weeks stability, Purity (%) / 40° C./75% RH 2-weeks stability, Purity (%) / 60° C. 2 weeks stability, Purity (%): GC purity; for 60° C. 2 weeks stability, XRPD: about 20 mg in glass weighing bottles
Description: Standard XRPD patterns were collected using a Bruker D8 Advance diffractometer (Bruker, GER). The X-ray source is a copper (Cu) tube that was operated at 40 kV and 40 mA. Powder samples were prepared on zero-background silicon (Si) holders using manual light pressure to keep the sample surfaces flat. Each sample was analyzed from 3 to 45° 2θ with an effective step size of 0.02° 2θ and 0.08 s exposure time.
Shimadzu GC-2104 (Shimadzu, Japan) was utilized for chemical purity characterization.
Several salts were further investigated for hygroscopicity, purity, and solid form stability. To determine solid form stability, glass weighing bottles containing about 20 mg samples were kept under (1) 60° C., (2) 25° C./60% RH, and (3) 40° C./75% RH conditions, respectively. After 1 week and 2 weeks, respectively, XRPD and GC analyses were conducted to investigate the physical and chemical stability of the selected forms under corresponding conditions.

[2] = Dynamic Vapor Sorption (DVS) analysis / hygroscopicity of salt forms; assay type: physicochemical; settings: for Hygroscopicity: Table 4; for Hygroscopicity / Hygroscopicity by DVS analysis: DVS at 25° C.
Description: DVS analysis was carried out using a Surface Measurement System DVS Intrinsic analyzer (SMS, UK). The instrument balance was calibrated with standard weights. Approximately 15-20 mg of sample was loaded into a pan for analysis. The sample was analyzed at 25° C. in 10% relative humidity (RH) steps from 50% to 95% RH (adsorption cycle), from 95% to 0% RH (desorption cycle), and from 0% to 50% RH (adsorption cycle). The movement from one step to the next occurred either after satisfying the equilibrium criterion of 0.002% weight change (dm/dt) or, if the equilibrium criterion was not met, after six hours. […]

Row | SMILES | 25° C./60% RH 2-weeks stability, XRPD [1] | 25° C./60% RH 2-weeks stability, Purity (%) [1] [%] | 40° C./75% RH 2-weeks stability, XRPD [1] | 40° C./75% RH 2-weeks stability, Purity (%) [1] [%] | 60° C. 2 weeks stability, XRPD [1] | Hygroscopicity [2] | Hygroscopicity by DVS analysis [2] | Form conversion after DVS test ([2]; after DVS test) | 60° C. 2 weeks stability, Purity (%) [1] [%] | DVS weight gain at 0% RH ([2]; 0% RH, 25° C.) | DVS weight gain at 80% RH ([2]; 25° C.) | DVS weight gain at 95% RH ([2]; 25° C.) | Deliquescence with high humidity [2]
1 | C1CCC(NC2CCCCC2)CC1.O=C(O)[C@H]1C[C@@H](OC(F)(F)F)C1 [VIa-1a, DCHA salt Form A] | No change | 99.7 | No change | 99.3 | Sublimed | non- |  |  |  |  |  |  | 
2 | CC(C)(C)N.O=C(O)[C@H]1C[C@@H](OC(F)(F)F)C1 [VIa-1a, TBA salt Form A] |  |  |  |  | Sublimed^& | non- |  |  |  |  |  |  | 
3 | C1CCC(NC2CCCCC2)CC1.O=C(O)[C@H]1C[C@@H](OC(F)(F)F)C1 [VIa-1a DCHA salt Form A] |  |  |  |  |  |  | non-hygroscopic | no form conversion was detected |  |  |  |  | 
4 | N=C(N)NCCC[C@H](N)C(=O)O.O=C(O)[C@H]1C[C@@H](OC(F)(F)F)C1 [VIa-1a, L-Arginine salt Form A] | No change | 98.8 | Deliquesced |  | additional peak | hygroscopic |  |  | 99.2 |  |  |  | 
5 | NC(CO)(CO)CO.O=C(O)[C@H]1C[C@@H](OC(F)(F)F)C1 [VIa-1a, TMA salt Form A] | No change | 99.4 | No change | 99.3 | No change | non- | non-hygroscopic |  | 99.3 | about 7% | about 0.1% | about 47% | may deliquesce with high humidity (>90% RH)
6 | N=C(N)NCCC[C@H](N)C(=O)O.O=C(O)[C@H]1C[C@@H](OC(F)(F)F)C1 [VIa-1a, L-arginine salt Form A] |  |  |  |  |  |  | high hygroscopicity |  |  |  | about 28% | about 74% | deliquesced with high humidity
